Measured values as given in US4461901A, “Pyridyl containing 1,2-benzisothiazole-3-amine derivatives” (American Home Products Corporation, priority 1983, dated 1984).
Structures can show the parent of a compound that is named as a salt.

Tests used:
[1] = system: H2 histamine receptors; conditions: background statement; cited from earlier work
[2] = system: gastric acid secretion; assay: gastric secretion in the rat, modified Shay procedure of pylorus ligation; assay type: in vivo; conditions: 32 mg/kg, interduodenally (i.d.), male Charles River rats, four hours after ligation
Method: The procedures for these tests and the results for some of the compounds of the invention are presented at the end of the following examples, which will serve to illustrate the present invention.
The procedure for testing gastric secretion in the rat, a modification of the procedure of Shay et al., Gastroenterology, 26, 906-13 (1954) is carried out as follows.
Male Charles River rats weighing 200-300 grams are deprived of food but not water for 24 hours prior to use. Water is, however, withheld during the experiment. The rats are weighed, anesthetized, and the pylorus ligated according to the method of Shay et al. Treatment or vehicle control is then administered interduodenally (i.d.). Rats are housed 2/cage and sacrificed with CO2 four hours after ligation. The stomachs are removed, rinsed, and contents emptied into a graduated centrifuge tube. The tubes are centrifuged for 20 minutes at 2,000 RPM and the volume of gastric juice recorded. Any samples obviously contaminated by feces, food or hemolysis are eliminated. An aliquot of each is frozen for later analysis of Na^+, K^+ and Cl^- concentration. The pH is measured and 1 ml of gastric juice is titrated with 0.1N NaOH to a pH of 7.0-7.4. Titratable acid output is calculated in microequivalents and the percent inhibition of acid output is calculated as follows: [formula]

[3] = molecular target: T1, histamine H2 receptor (Cavia porcellus, UniProt P47747); assay: guinea pig heart atrium test: inhibition of histamine-induced positive chronotropic response in the spontaneously beating right atrium; conditions: read-out: pA2 Value (apparent dissociation constant of the H2 antagonist) (converted)
T1 construct: from tissue; host or cells: guinea pig right atrium (isolated, spontaneously beating)
T1 sequence (P47747 whole entry): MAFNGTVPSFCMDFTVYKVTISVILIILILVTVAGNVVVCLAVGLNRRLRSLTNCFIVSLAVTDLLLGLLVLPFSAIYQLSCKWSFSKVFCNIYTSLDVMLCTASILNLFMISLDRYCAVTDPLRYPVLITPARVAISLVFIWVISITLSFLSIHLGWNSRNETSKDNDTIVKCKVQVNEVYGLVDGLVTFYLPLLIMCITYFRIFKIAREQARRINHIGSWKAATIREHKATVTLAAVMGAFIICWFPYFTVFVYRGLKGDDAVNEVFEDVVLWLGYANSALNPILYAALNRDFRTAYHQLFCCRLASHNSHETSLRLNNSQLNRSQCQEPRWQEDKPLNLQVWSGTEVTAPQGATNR
Method: The guinea pig heart atrium test is carried out as follows.
A guinea pig right atrium is suspended at 1 g tension (isometric) in the thermostatically controlled (32° C.) tissue bath (10 ml) containing oxygenated (95% O2; 5% CO2) Krebs-Haenseleit buffer (pH 7.4). The tissue is allowed to stabilize over 1 hour. Individual contractions are recorded with a force-displacement transducer through a strain gauge coupler. A control dose-response curve to histamine in the above described tissue bath is obtained after which the tissue is washed 3 times and allowed to re-equilibrate to basal rate. The test compound is added to the tissue bath at the desired final concentration. Thirty minutes after addition of the compound, a fresh histamine dose response curve is again obtained. Then the response to histamine in the presence of antagonist is compared to the histamine control response. This procedure is repeated, using fresh tissues, for each concentration of antagonist tested.

[4] = cited from earlier work

CNC(=NC#N)NCCSCc1csc(N=C(N)N)n1 [tiotidine]
selective H2 antagonist activity versus cimetidine [1]: greater activity than cimetidine

Nc1cc(OCCCNC2=NS(=O)(=O)c3ccccc32)ccn1 [Example 3, N-[3-[(2-amino-4-pyridinyl)oxy]propyl]-1,2-benzisothiazol-3-amine 1,1 dioxide, hydrochloride, hemiethanolate]
% Inhibition (of acid output) [2]: 57%
Kb [3]: 10 nM

CN/C(=N/CCSCc1nc[nH]c1C)NC#N [Cimetidine]
confusional states ([4]; elderly patients): tendency to cause confusional states in elderly patients
anti-androgenic activity ([4]; patients): anti-androgenic activity
duration of action ([4]; patients): short duration of action

Nc1ncccc1OCCCNC1=NS(=O)(=O)c2ccccc21 [Example 2, N-[3-[(2-amino-3-pyridinyl)oxy]propyl]-1,2-benzisothiazol-3-amine 1,1-dioxide, hydrochloride, hemihydrate]
Kb [3]: 10 nM
